System: K86415-001-R-J1-PDC complex spheroids, viability
Experiment: Anticancer human tumor K86415-001-R-J1-PDC patient-derived lung adenocarcinoma cell line growth inhibition [RAS]
Settings: for IC50: curve of first compound; for viability, T/C: stronger effect = lower value
Excerpt: RAS pathway inhibitors in Combinations in Complex Spheroids
A high-throughput screen of multi-cell type tumor spheroids was designed to identify active combinations of RAS pathway inhibitors and targeted small molecules. Complex spheroids include a stromal component modeled by human endothelial cells (HUVEC) and fibroblasts modeled by human mesenchymal stem cells (MSCs). The concentration ranges selected for each drug and investigational agent were based upon clinically achievable concentrations if the clinical Cmax of the agent was known.
Compounds. The drugs and investigational agents: abemaciclib (NSC768073), cobimetinib (NSC768068), divarasib (GDC6063, NSC841802), docetaxel (NSC628503), GDC-1971 (RLY-1971, NSC841576), gemcitabine (NSC613327), inavolisib (NSC800729), ipatasertib (NSC767898), KB-0742 (NSC834161), MRTX-1133 (NSC836407), osimertinib (NSC779217), RMC-4630 (NSC839698), RMC-6236 (NSC851965), RMC-6291 (NSC852671), Ro-3306 (NSC812927), sapanisertib (NSC764658), SN-38 (NSC673596), staurosporine (NSC755774), SY5609 (NSC837396), and tovorafenib (DAY101, NSC766906), were obtained from the National Cancer Institute (NCI) Developmental Therapeutics Program Chemical Repository. The FDA-approved anticancer drug set is available from the NCI Developmental Therapeutics Program. […] The stock solutions were prepared in dimethyl sulfoxide (DMSO, Sigma-Aldrich, St. Louis, MO, cat. D2650) at 800-fold the tested concentration and stored at -70 degrees C prior to their use. All drugs and investigational agents were tested over a range starting from a high concentration at or near the clinical Cmax and decreasing in half-log increments. If the clinical Cmax for an agent had not been determined, the highest concentration tested was 10 microM.
Cell Culture. All cells were maintained in an incubator at 37 degrees C and 5% CO2 with 95% humidity. The PDC lines were cultured according to standard operating procedures established by the NCI PDMR. All PDCs were thawed and cultured in Matrigel-coated flasks prepared with a working solution of 1X Ham's F-12 nutrient mix, without supplementation (Invitrogen, Waltham, MA, cat. 11765054), 100 U/mL penicillin-streptomycin (Invitrogen, cat. 15140122), and 2.5% Matrigel (Corning Inc., Corning, NY, cat. 354248) for the first three passages. The 362531-283-R-J2-PDC and 782815-120-R-J1-PDC lines were cultured in 6C/Colon 1B media, which includes advanced DMEM/F-12 (Thermo Fisher Scientific, cat. 12634028), 10 mM HEPES (Thermo Fisher Scientific, cat. 15630080), 1X GlutaMAX supplement (Thermo Fisher Scientific, cat. 35050061), 0.1 mg/mL primocin (InvivoGen, San Diego, CA, cat. ant-pm-2), 10% defined fetal bovine serum, heat inactivated (HyClone Laboratories Inc., Logan, UT, cat. SH30070.03HI), 50% L-WRN conditioned media (ATCC, cat. CRL-3276), 1.25 mM N-Acetyl-L-cysteine (Sigma-Aldrich, cat. A9165), 10 mM nicotinamide (Sigma-Aldrich, cat. N0636), 1X B-27 supplement (Thermo Fisher Scientific, cat. 17504044), 1X N-2 supplement (Thermo Fisher Scientific, cat. 17502048), 50 ng/mL human EGF (Thermo Fisher Scientific, cat. PHG0311), and 10 microM Y-27632 dihydrochloride (Tocris Bioscience, cat. 1254). The K12877-001-R-J1-PDC line was cultured in 6I media, which includes all 6C/Colon 1B media plus 10 ng/mL human FGF-10 (PeproTech, cat. 100-26), 1 ng/mL human FGF-2 (PeproTech, cat. 100-18B), 1 µM prostaglandin E2 (Tocris Bioscience, cat. 2296), […] hydrocortisone (Sigma-Aldrich, cat. H4001), and […] bovine insulin (Sigma-Aldrich, cat. I6634). The K86415-001-R-J1-PDC line was cultured in 6D media, which includes all 6C/Colon 1B media components minus the L-WRN conditioned media. The 485176-168-R4-J1-PDC was cultured in PANC media, which includes all 6C/Colon 1B media plus 100 ng/mL human FGF-10 (PeproTech, cat. 100-26), 500 nM SB-431542 (Selleckchem, cat. S1067), and 10 nM gastrin (Tocris Bioscience, cat. 3006). […]
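Note: spheroids exposed to agents for seven days before readout.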

CC1(O)CCCC1n1c(=O)c(C(F)F)cc2cnc(NC3CCN(S(C)(=O)=O)CC3)nc21 (configuration not stated) + C#Cc1c(F)ccc2cc(O)cc(-c3ncc4c(N5CC6CCC(C5)N6)nc(OCC56CCCN5CC(F)C6)nc4c3F)c12 was tested, and the IC50 (second compound 0.0316 µM) was 4.56 µM, the IC50 (second compound 0.1 µM) was 4.58 µM and the IC50 (second compound 0.316 µM) was 4.3 µM. It also gave an IC50 (second compound 1 µM) of 4.02 µM, an IC50 (second compound 3.16 µM) of under 0.0316 µM and an IC50 (second compound 10 µM) of under 0.0316 µM. It also gave a viability, T/C (second compound 0.0316 µM, first compound 0.0316 µM) of 86.2%, a viability, T/C (second compound 0.0316 µM, first compound 0.1 µM) of 71.4% and a viability, T/C (second compound 0.0316 µM, first compound 0.316 µM) of 59%. The viability, T/C (second compound 0.0316 µM, first compound 1 µM) was 79.4%, the viability, T/C (second compound 0.0316 µM, first compound 3.16 µM) was 70% and the viability, T/C (second compound 0.0316 µM, first compound 10 µM) was 7.15%. For the same compound, the viability, T/C (second compound 0.1 µM, first compound 0.0316 µM) was 78.2%, the viability, T/C (second compound 0.1 µM, first compound 0.1 µM) was 68.4% and the viability, T/C (second compound 0.1 µM, first compound 0.316 µM) was 57.9%. It also gave a viability, T/C (second compound 0.1 µM, first compound 1 µM) of 64.6%, a viability, T/C (second compound 0.1 µM, first compound 3.16 µM) of 80.6% and a viability, T/C (second compound 0.1 µM, first compound 10 µM) of 8.13%. For the same compound, the viability, T/C (second compound 0.316 µM, first compound 0.0316 µM) was 74.2%, the viability, T/C (second compound 0.316 µM, first compound 0.1 µM) was 63.3% and the viability, T/C (second compound 0.316 µM, first compound 0.316 µM) was 55%. It also gave a viability, T/C (second compound 0.316 µM, first compound 1 µM) of 67.9%, a viability, T/C (second compound 0.316 µM, first compound 3.16 µM) of 67.1% and a viability, T/C (second compound 0.316 µM, first compound 10 µM) of 8.09%. The viability, T/C (second compound 1 µM, first compound 0.0316 µM) was 65.3%, the viability, T/C (second compound 1 µM, first compound 0.1 µM) was 62.4% and the viability, T/C (second compound 1 µM, first compound 0.316 µM) was 53.6%. For the same compound, the viability, T/C (second compound 1 µM, first compound 1 µM) was 54.5%, the viability, T/C (second compound 1 µM, first compound 3.16 µM) was 70.7% and the viability, T/C (second compound 1 µM, first compound 10 µM) was 6.85%. For the same compound, the viability, T/C (second compound 3.16 µM, first compound 0.0316 µM) was 28.2%, the viability, T/C (second compound 3.16 µM, first compound 0.1 µM) was 28.9% and the viability, T/C (second compound 3.16 µM, first compound 0.316 µM) was 29%. It also gave a viability, T/C (second compound 3.16 µM, first compound 1 µM) of 43.6%, a viability, T/C (second compound 3.16 µM, first compound 3.16 µM) of 59.4% and a viability, T/C (second compound 3.16 µM, first compound 10 µM) of 5.28%. For the same compound, the viability, T/C (second compound 10 µM, first compound 0.0316 µM) was 15.6%, the viability, T/C (second compound 10 µM, first compound 0.1 µM) was 16.1% and the viability, T/C (second compound 10 µM, first compound 0.316 µM) was 21.9%. The viability, T/C (second compound 10 µM, first compound 1 µM) was 25.9%, the viability, T/C (second compound 10 µM, first compound 3.16 µM) was 30.2% and the viability, T/C (second compound 10 µM, first compound 10 µM) was 2.97%.

From PubChem BioAssay AID2060893 (Molecular Pharmacology Branch, DTP, NCI, 2025)
